# Experimental data as given in patent US20160146788A1, “METHOD FOR SCREENING DRUGS FOR TREATING/PREVENTING MYELODYSPLASTIC SYNDROME, ETC” (KYOTO UNIVERSITY, priority 2013, published 2016).
# System: hematopoietic progenitor cells induced from MDS-iPS cells
# Test: Colony formation assay of hematopoietic progenitor cells with p38 inhibitor added
# Type: cell-based, human
# Details: 10 μM SB203580 in methylcellulose medium, HPC from MDS-iPSC and Normal iPSC derived from KM5 and KM16, colonies counted after 14 or 15 days, FIG. 19
# Experimental: Using a 35 mm culture dish, 2500 cells from the cells of CD43^+CD34^+CD38^− fraction induced to differentiate from iPS cells (abnormal MDS-iPSCs (NonT-iPS) and Normal iPSCs (T-iPS)) and extracted by flow cytometer were seeded in 2 ml of a methylcellulose medium containing SCF, G-CSF, GM-CSF, IL-3, IL-6 and EPO (MethoCult H4435) according to the method of Example 2. After 15 days, the number of the colonies was counted under a microscope. After Cytospin, Wright's staining was performed, and the colony type was identified by microscopic observation.
# To study whether the decreased colony-forming ability of hematopoietic progenitor cells induced from MDS-iPS cells is recovered by the effect of p38 inhibitor, colony formation assay was performed by a method similar to Example 3 except that a p38 inhibitor was added. In brief, using a 35 mm culture dish, 2500 cells from the cells of CD43+CD34+CD38-fraction induced to differentiate from iPS cells (MDS-iPSCs (NonT-iPS)) and Normal iPSCs (T-iPS)) and extracted by flow cytometer were seeded in 1.1 ml of a methylcellulose medium containing SCF, G-CSF, GM-CSF, IL-3, IL-6, EPO and 10 μM SB203580 (p38 inhibitor) according to the method of Example 2. After 14 or 15 days, the number of colonies was counted under a microscope. Furthermore, after Cytospin, Wright's staining was performed, and the colony type was identified by microscopic observation.
smiles,measurement,setting,value
C[S+]([O-])c1ccc(-c2nc(-c3ccncc3)c(-c3ccc(F)cc3)[nH]2)cc1 (centres unmarked) [SB203580],colony-forming ability (number of colonies),,colony-forming ability-improving effect
same,colony-forming ability (number of colonies),listed as p38 inhibitor,improving effect on the colony-forming ability
